Experiments:
[1] = tested on: A2780 (ovarian cell line); assay: Cytotoxicity assay (propidium iodide assay), A2780; format: cell-based; conditions: Homo sapiens, A2780 cells, 48 h treatment
Method: (§1) The assay was designed as in the reference, Anticancer Drugs, 2002, 13, 1-8, the disclosure of which is incorporated by reference for the teaching of the assay.
(§2) Cells from cell lines A2780 (ovarian cell line) and PC3 (prostate cell line) (both from ATCC) were seeded at a density of 3000 cells/well in a white opaque 96-well plate. Following incubation at 37° C./5% CO2 for a period of 18-24 h, the cells were treated with various concentrations (stock solution was prepared in DMSO and subsequent dilutions were made in media as per ATCC guidelines) of the test compounds for a period of 48 h. At the end of treatment, the culture medium was discarded, the cells were washed with 1×PBS and 200 μl of 7 μg/ml propidium iodide was added to each well. The plates were frozen at −70° C. overnight. For analysis, the plates were warmed to RT, allowed to thaw and were read in PoleStar fluorimeter with the fluorescence setting. The percentage of viable cells in the non-treated set of wells was considered to be 100 and the percentage viability following treatment was calculated accordingly. IC50 values were calculated from graphs plotted using these percentages.

PC3 (prostate cell line) = assay: Cytotoxicity assay (propidium iodide assay), PC3; format: cell-based; conditions: Homo sapiens, PC-3, PC3 cells, 48 h treatment
Method: as §1, §2

Structure (SMILES) | IC50 [1] [µM] | IC50 (PC3 (prostate cell line)) [µM] | inhibition at 1 µM ([1]; 1 μM) [%] | inhibition at 1 µM (PC3 (prostate cell line); 1 μM) [%]
COc1ccc(-n2c(=NC#N)n(C)c3cnc4ccc(-c5cnc(N)c(C(F)(F)F)c5)cc4c32)cn1 [Example 1, N-(8-(6-amino-5-(trifluoromethyl)pyridin-3-yl)-1-(6-methoxypyridin-3-yl)-3-methyl-1H-imidazo[4,5-c]quinolin-2(3H)-ylidene)cyanamide] | ≤ 0.5 | ≤ 0.5 | – | –
COc1ccc(-n2c(=NC#N)n(C)c3cnc4ccc(-c5ccc(N(C)C)nc5)cc4c32)cn1 [Example 2, N-(8-(6-(dimethylamino)pyridin-3-yl)-1-(6-methoxypyridin-3-yl)-3-methyl-1H-imidazo[4,5-c]quinolin-2(3H)-ylidene)cyanamide] | ≤ 0.5 | ≤ 0.5 | – | –
COc1ccc(-n2c(=NC#N)n(C)c3cnc4ccc(-c5cnc6ccccc6c5)cc4c32)cn1 [Example 3, N-(1-(6-methoxypyridin-3-yl)-3-methyl-8-(quinolin-3-yl)-1H-imidazo[4,5-c]quinolin-2(3H)-ylidene)cyanamide] | ≤ 0.5 | ≤ 0.5 | – | –
COc1ccc(-n2c(=NC#N)n(C)c3cnc4ccc(-c5cnc(N)c(C(F)(F)F)c5)cc4c32)c(Cl)n1 [Example 4, N-(8-(6-amino-5-(trifluoromethyl)pyridin-3-yl)-1-(2-chloro-6-methoxypyridin-3-yl)-3-methyl-1H-imidazo[4,5-c]quinolin-2(3H)-ylidene)cyanamide] | ≤ 0.5 | ≤ 0.5 | – | –
Cn1c(=NC#N)n(-c2ccc(C(C)(C)C#N)cc2)c2c3cc(-c4cnc(N)c(C(F)(F)F)c4)ccc3ncc21 [Example 6, N-(8-(6-amino-5-(trifluoromethyl)pyridin-3-yl)-1-(4-(2-cyanopropan-2-yl)phenyl)-3-methyl-1H-imidazo[4,5-c]quinolin-2(3H)-ylidene)cyanamide] | ≤ 0.5 | ≤ 0.5 | – | –
Cn1c(=NC#N)n(-c2ccc(C(C)(C)C#N)cc2)c2c3cc(-c4cnc5ccccc5c4)ccc3ncc21 [Example 7, N-(1-(4-(2-cyanopropan-2-yl)phenyl)-3-methyl-8-(quinolin-3-yl)-1H-imidazo[4,5-c]quinolin-2(3H)-ylidene)cyanamide] | ≤ 0.5 | ≤ 0.5 | – | –
COc1ccc(-n2c(=NC#N)n(C)c3cnc4ccc(-c5cnc(N)c(C(F)(F)F)c5)cc4c32)c(C)n1 [Example 9, N-(8-(6-amino-5-(trifluoromethyl)pyridin-3-yl)-1-(6-methoxy-2-methylpyridin-3-yl)-3-methyl-1H-imidazo[4,5-c]quinolin-2(3H)-ylidene)cyanamide] | ≤ 0.5 | ≤ 0.5 | – | –
Cn1c(=NC#N)n(-c2ccc(C#N)nc2)c2c3cc(-c4cnc(N)c(C(F)(F)F)c4)ccc3ncc21 [Example 10, N-(8-(6-amino-5-(trifluoromethyl)pyridin-3-yl)-1-(6-cyanopyridin-3-yl)-3-methyl-1H-imidazo[4,5-c]quinolin-2(3H)-ylidene)cyanamide] | ≤ 0.5 | ≤ 0.5 | – | –
Cn1c(=NC#N)n(-c2ccc3ncccc3c2)c2c3cc(-c4cnc(N)c(C(F)(F)F)c4)ccc3ncc21 [Example 11, N-(8-(6-amino-5-(trifluoromethyl)pyridin-3-yl)-3-methyl-1-(quinolin-6-yl)-1H-imidazo[4,5-c]quinolin-2(3H)-ylidene)cyanamide] | ≤ 0.5 | ≤ 0.5 | – | –
CNc1ncc(-c2ccc3ncc4c(c3c2)n(-c2ccc(C(C)(C)C#N)cc2)c(=NC#N)n4C)cc1C(F)(F)F [Example 12, N-(1-(4-(2-cyanopropan-2-yl)phenyl)-3-methyl-8-(6-(methylamino)-5-(trifluoromethyl)pyridin-3-yl)-1H-imidazo[4,5-c]quinolin-2(3H)-ylidene)cyanamide] | ≤ 0.5 | ≤ 0.5 | – | –
COc1ccc(-n2c(=NC#N)n(C)c3cnc4ccc(-c5cnc(OC)c(N)c5)cc4c32)c(OC)c1 [Example 13, N-(8-(5-amino-6-methoxypyridin-3-yl)-1-(2,4-dimethoxyphenyl)-3-methyl-1H-imidazo[4,5-c]quinolin-2(3H)-ylidene)cyanamide] | – | – | ≥ 70 | ≥ 70
